Data as given in patent publication US20120289523A1, “PYRROLO [3,2-E] [1,2,4] TRIAZOLO [1,5-A] PYRIMIDINES DERIVATIVES AS INHIBITORS OF MICROGLIA ACTIVATION” (BTG INTERNATIONAL LIMITED, priority 2009, published 2012).

Assays:
[1] = test system: Mouse BALB/c monocyte macrophages, J774.2; test: Inhibition of β-amyloid induced activation: TNF-alpha levels in media (ELISA or Meso Scale Discovery kit); type: cell-based; conditions: J774.2, 24 h, J774.2 cells, 20 μM Aβ(1-42), read-out: IC50 (μM) TNF-α
Protocol: (§1) Mouse BALB/c monocyte macrophages, J774.2, {ECACC 85011428} were grown and sub-cultured in cell media (DMEM containing 10% FBS, 1% L-glutamine and 1% penicillin/streptomycin). The J774 cells were plated at 100,000 cells/well in 50 μl cell media on 96 well plates and placed in a 37° C., 5% CO2 incubator overnight prior to experiments.
(§2) The addition of Aβ(1-42) and compounds to the J774 cells was performed using a Biotek precision 2000 liquid handling instrument. 3 μl of compound in DMSO ranging from 8 μM to 6 mM were pipetted into a “daughter plate” containing 294 μl of cell media and mixed thoroughly. 3 μl of Aβ(1-42) in DMSO at 4 mM was then added to the “daughter plate” and mixed thoroughly. 50 μl was then removed from the “daughter plate” and added to the plated J774 cells. The final concentrations in the wells containing 100 μl cell media were 20 μM Aβ(1-42), the compounds ranged from ˜40 nM to 30 μM in 1% DMSO and also in the presence of 50 U/ml Interferon gamma. The plates were incubated for 24 hours in a 37° C., 5% CO2 incubator. After 24 hours incubation the media from the wells were collected and stored at −20° C. until required for testing.
The TNF-alpha levels in the media were tested using a TNF-alpha ELISA (R&D Systems MTA00) or Meso Scale Discovery MS6000 Mouse Proinflammatory-7 kit, using the manufacturers instructions.

[2] = test system: Mouse BALB/c monocyte macrophages, J774.2; test: Inhibition of β-amyloid induced activation: nitric oxide release (Griess assay); type: cell-based; conditions: 20 μM Aβ(1-42), 50 U/ml Interferon gamma, 24 hours
Protocol: as §1, §2
The nitric oxide levels in the media were tested using the Griess assay (Promega G2930) using the manufacturer's instructions.

[3] = Metabolism of compounds, human liver microsomes; type: in vitro ADME; conditions: 1 μM compound, 0.3 mg/ml protein, 60 minutes at 37° C.; for half-life at 1 μM: human, pooled liver microsomes, read-out: Microsomes t1/2 (mins) Human
Protocol: (§3) These were measured by incubating 1 μM test compound with pooled liver microsomes (0.3 mg/ml) protein for 60 minutes at 37° C. Samples were analysed by HPLC-MS/MS (Kuhnz, W. and Gieschen, H. (1998) Drug Metab. Dispos., 26, 1120-1127).

CYP2D6 = target: T1, CYP2D6 (Homo sapiens, UniProt P10635); test: Inhibition of cytochrome P450 (P450-Glo) CYP2D6; type: biochemical; conditions: human recombinant enzyme, read-out: CYP450 Inhibition (IC50 microM) 2D6
T1 construct: purchased Promega Corporation
Protocol: (§4) Tests were carried out using human recombinant enzymes CYP1A2, CYP2C9, CYP2C19, CYP2D6 and CYP3A4 and P450-Glo™ screening system (Promega Corporation). Briefly, using a white opaque 96-well plate, one-fourth of the final reaction volume of a 4×cytochrome P450 reaction mixture containing the requisite luminogenic substrate was combined with an equal volume of the test compound (0.03-30 μM) or known inhibitor control at a 4×concentration to give one-half of the final reaction volume. A 10-minute pre-incubation was performed. One-half the final volume of the 2×NADPH regeneration system was then added to initiate the CYP reactions, and bring all components to their 1×target concentrations. The plate is incubated at 37° C. for 30 minutes. The luciferin detection reagent was added which stops the CYP reaction and initiates luminescence. The signal was allowed to stabilize for 20 minutes at room temperature and then the luminescence was read. The net CYP-dependent luminescence was calculated by subtracting the average luminescence of the control reactions from the CYP-containing reactions. Changes from the average net signal of untreated CYP reactions for reactions with a test compound reflect the inhibition of CYP activity by this compound.

CYP2C9 = target: T2, CYP2C9 (Homo sapiens, UniProt P11712); test: Inhibition of cytochrome P450 (P450-Glo) CYP2C9; type: biochemical; conditions: human recombinant enzyme, read-out: CYP450 Inhibition (IC50 microM) 2C9
T2 construct: purchased Promega Corporation
Protocol: as §4

CYP2C19 = target: T3, CYP2C19 (Homo sapiens, UniProt P33261); test: Inhibition of cytochrome P450 (P450-Glo) CYP2C19; type: biochemical; conditions: human recombinant enzyme, read-out: CYP450 Inhibition (IC50 microM) 2C19
T3 construct: purchased Promega Corporation
Protocol: as §4

[4] = Metabolism of compounds, rat liver microsomes; type: in vitro ADME; conditions: 1 μM compound, 0.3 mg/ml protein, 60 minutes at 37° C.; for half-life at 1 μM: rat, pooled liver microsomes, read-out: Microsomes t1/2 (mins) Rat
Protocol: as §3

CYP3A4 = target: T4, CYP3A4 (Homo sapiens, UniProt P08684); test: Inhibition of cytochrome P450 (P450-Glo) CYP3A4; type: biochemical; conditions: human recombinant enzyme, read-out: CYP450 Inhibition (IC50 microM) 3A4
T4 construct: purchased Promega Corporation
Protocol: as §4

CYP1A2 = target: T5, CYP1A2 (Homo sapiens, UniProt P05177); test: Inhibition of cytochrome P450 (P450-Glo) CYP1A2; type: biochemical; conditions: human recombinant enzyme, read-out: CYP450 Inhibition (IC50 microM) 1A2
T5 construct: purchased Promega Corporation
T5 sequence (P05177 1-516): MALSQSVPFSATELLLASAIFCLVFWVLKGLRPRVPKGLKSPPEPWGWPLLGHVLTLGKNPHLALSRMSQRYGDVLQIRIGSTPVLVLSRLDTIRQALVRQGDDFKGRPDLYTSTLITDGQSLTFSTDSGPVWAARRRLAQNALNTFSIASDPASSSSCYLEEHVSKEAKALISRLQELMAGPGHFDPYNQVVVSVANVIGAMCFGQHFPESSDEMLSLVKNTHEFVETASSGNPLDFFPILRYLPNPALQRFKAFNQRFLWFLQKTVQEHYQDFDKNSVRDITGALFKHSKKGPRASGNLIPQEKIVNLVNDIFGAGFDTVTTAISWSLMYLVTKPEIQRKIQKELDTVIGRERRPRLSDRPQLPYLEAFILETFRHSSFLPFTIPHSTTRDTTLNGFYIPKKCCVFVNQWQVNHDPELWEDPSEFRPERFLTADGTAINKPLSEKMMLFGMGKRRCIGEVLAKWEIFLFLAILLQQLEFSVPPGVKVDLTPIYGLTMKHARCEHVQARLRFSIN
Protocol: as §4, with “Briefly, using a white opaque 96-well plate, one-fourth of the final reaction volume of a 4×cytochrome P450 reaction mixture containing the requisite luminogenic substrate was combined with an equal volume of the test compound (0.03-30 μM) or known inhibitor control at a 4×concentration to give one-half of the final reaction volume.” left out

[5] = test system: human colon adeno-carcinoma cell line Caco-2 or sub-clone TC7; test: Cell permeability of compounds (Caco-2 or TC7 monolayers); type: in vitro ADME; conditions: 10 μM; for Cell Perm A-B/B-A: ratio of Papp A-B to B-A, 60 minutes
Protocol: (§5) These were measured using the accepted in vitro intestinal epithelial model using either the human colon adeno-carcinoma cell line Caco-2 or a sub-clone of this cell line, TC7. The apparent permeability coefficient (Papp) was determined in the apical-to-basolateral (A-B) and the B-A directions across cell monolayers cultured on 96-well polycarbonate membrane filters. Compounds were tested at 10 μM with a final DMSO concentration of 1%. The assay plate was incubated for 60 minutes at 37° C. with gentle shaking. Samples were taken at time zero from the donor side and at the end of the incubation from both donor and receiver sides. Samples were analysed by HPLC-MS/MS. The Papp value (expressed as 10^−6 cm/sec) was then calculated based on the appearance rate of the compound in the receiver side (Gres, M. C. et al. (1998) Pharm. Res., 15, 726-733).

[6] = as above; type: in vitro ADME, human; conditions: human, Caco-2, apical-to-basolateral, 60 minutes at 37° C., read-out: Cell Perm A-B
Protocol: as §5

[7] = **Level of TNF for Aβ(1-42) alone: 13184 pg/mL
[8] = Table 1, identification of the active enantiomer, J774.2 cells, read-out: IC50 measured by inhibition of Nitric Oxide release
[9] = Table 2, J774.2 cells, read-out: IC50 (μM) NO
[10] = *Level of TNF for Aβ(1-42) alone: 9699 pg/mL

T2 sequence (P11712 whole entry): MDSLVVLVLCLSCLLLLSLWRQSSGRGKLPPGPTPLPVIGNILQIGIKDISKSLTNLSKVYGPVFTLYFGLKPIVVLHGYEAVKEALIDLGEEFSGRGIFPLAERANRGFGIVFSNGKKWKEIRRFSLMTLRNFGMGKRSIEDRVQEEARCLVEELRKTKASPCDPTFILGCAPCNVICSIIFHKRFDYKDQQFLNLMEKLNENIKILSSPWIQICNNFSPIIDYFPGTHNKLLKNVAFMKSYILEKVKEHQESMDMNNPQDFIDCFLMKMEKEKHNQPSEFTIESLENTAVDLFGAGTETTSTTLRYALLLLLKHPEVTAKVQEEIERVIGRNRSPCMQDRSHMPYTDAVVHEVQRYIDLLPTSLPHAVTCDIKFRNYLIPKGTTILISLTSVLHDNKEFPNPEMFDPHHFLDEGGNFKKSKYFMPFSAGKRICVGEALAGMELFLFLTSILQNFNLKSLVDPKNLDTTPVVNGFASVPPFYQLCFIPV
T1 sequence (P10635 whole entry): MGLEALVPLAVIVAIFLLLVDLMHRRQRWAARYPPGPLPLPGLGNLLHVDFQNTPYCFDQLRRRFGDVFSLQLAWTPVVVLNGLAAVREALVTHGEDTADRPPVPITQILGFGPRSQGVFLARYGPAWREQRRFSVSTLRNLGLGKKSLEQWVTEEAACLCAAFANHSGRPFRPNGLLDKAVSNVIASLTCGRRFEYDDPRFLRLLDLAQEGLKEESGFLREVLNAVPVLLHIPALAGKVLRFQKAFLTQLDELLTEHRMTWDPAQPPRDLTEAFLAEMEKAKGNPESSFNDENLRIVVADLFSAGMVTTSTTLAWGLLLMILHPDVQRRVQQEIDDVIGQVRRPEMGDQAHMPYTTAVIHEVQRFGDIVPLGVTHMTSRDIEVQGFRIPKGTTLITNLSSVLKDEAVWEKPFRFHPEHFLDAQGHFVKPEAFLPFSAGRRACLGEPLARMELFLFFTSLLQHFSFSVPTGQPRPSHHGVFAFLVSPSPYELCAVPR
T3 sequence (P33261 whole entry): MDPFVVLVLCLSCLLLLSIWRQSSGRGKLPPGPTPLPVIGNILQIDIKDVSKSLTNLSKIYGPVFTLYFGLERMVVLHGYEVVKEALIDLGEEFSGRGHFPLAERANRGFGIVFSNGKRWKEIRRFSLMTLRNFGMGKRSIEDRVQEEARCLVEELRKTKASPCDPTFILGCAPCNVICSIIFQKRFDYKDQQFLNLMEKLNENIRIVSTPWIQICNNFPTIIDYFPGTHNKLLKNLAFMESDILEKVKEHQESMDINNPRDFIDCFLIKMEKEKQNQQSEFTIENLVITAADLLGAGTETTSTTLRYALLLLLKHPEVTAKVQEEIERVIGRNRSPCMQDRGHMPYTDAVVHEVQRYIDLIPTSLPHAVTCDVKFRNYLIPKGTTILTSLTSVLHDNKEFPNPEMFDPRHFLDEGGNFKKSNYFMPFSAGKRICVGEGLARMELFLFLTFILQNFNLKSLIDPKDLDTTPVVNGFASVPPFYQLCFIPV
T4 sequence (P08684 whole entry): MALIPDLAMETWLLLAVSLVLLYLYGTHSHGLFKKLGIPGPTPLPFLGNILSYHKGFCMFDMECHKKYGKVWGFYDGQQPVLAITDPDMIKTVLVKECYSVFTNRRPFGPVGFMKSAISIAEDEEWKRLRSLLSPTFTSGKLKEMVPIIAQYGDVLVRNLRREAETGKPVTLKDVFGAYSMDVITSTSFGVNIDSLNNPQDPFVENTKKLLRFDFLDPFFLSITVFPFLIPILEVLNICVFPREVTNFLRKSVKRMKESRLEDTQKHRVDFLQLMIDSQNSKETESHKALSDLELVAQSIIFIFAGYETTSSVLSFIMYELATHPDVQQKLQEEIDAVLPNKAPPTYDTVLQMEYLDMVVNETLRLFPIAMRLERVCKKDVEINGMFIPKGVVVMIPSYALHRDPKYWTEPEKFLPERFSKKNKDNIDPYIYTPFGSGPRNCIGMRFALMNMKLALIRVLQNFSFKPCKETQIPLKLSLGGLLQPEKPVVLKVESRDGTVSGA

Row | IC50 [1, 7] [µM] | IC50 [2, 8] [µM] | IC50 [2, 9] [µM] | half-life at 1 μM [3] [min] | IC50 (CYP2D6) [µM] | IC50 (CYP2C9) [µM] | IC50 (CYP2C19) [µM] | half-life at 1 μM [4] [min] | IC50 [1, 10] [µM] | IC50 (CYP3A4) [µM] | IC50 (CYP1A2) [µM] | melting point [°C] | Cell Perm A-B/B-A [5] | Papp A→B at 60 min, 10 μM [6] [×10⁻⁶ cm/s] | Microsomes t1/2 (mins) Human [3] [min] | Microsomes t1/2 (mins) Rat [4] [min] | Cell Perm (Papp 10^−6 cm s^−1) A-B ([5]; apical-to-basolateral, 60 minutes at 37° C.) | Structure (SMILES)
1 | 5.5 | 3 | 3 |  |  |  |  |  |  |  |  |  |  |  |  |  |  | Cc1nc2ncnn2c2c1CCN2C(C)c1ccccc1 (single isomer, unassigned) [Compound 4]
2 |  |  | 1.1 | > 60 | > 20 | 14 | > 10 | 35 | 1.44 | 8 | > 20 | 153 to 155 | 0.55 | 35 |  |  |  | Cc1nc2ncnn2c2c1CCN2[C@H](c1ccccc1)C(F)(F)F [Compound 1, (R)-5-Methyl-8-[2,2,2-trifluoro-1-phenylethyl]-7,8-dihydro-6H-pyrrolo[3,2e][1,2,4]-triazolo[1,5-a]pyrimidine]
3 | 3.2 |  | 0.8 | > 60 | > 20 | > 20 | > 20 | 60 | 0.91 | 19 | > 20 |  | 0.37 | 72 |  |  |  | Cc1nc2ncnn2c2c1CCN2[C@H](c1ccc(F)cc1)C(F)(F)F [Compound 2, (R)-5-Methyl-8-[2,2,2-trifluoro-1-(4-fluorophenyl)ethyl]-7,8-dihydro-6H-pyrrolo[3,2e][1,2,4]triazolo[1,5-a]pyrimidine]
4 | 2.3 | 1.5 | 1.5 | > 60 | 21 | > 100 | 13 | 15 |  | 0.53 | > 100 |  | 0.85 | 35 |  |  |  | Cc1nc2ncnn2c2c1CCN2[C@@H](C)c1ccccc1 [Compound 5, (S)-8-[1-(Phenyl)ethyl]-5-methyl-7,8-dihydro-6H-pyrrolo[3,2e][1,2,4]triazolo[1,5-a]pyrimidine]
5 |  | 30 |  |  |  |  |  |  |  |  |  |  |  |  |  |  |  | Cc1nc2ncnn2c2c1CCN2[C@H](C)c1ccccc1 [Compound 6, (R)-8-[1-(Phenyl)ethyl]-5-methyl-7,8-dihydro-6H-pyrrolo[3,2e][1,2,4]triazolo[1,5-a]pyrimidine]
6 |  |  |  |  | 15 | 27 | 7 |  |  | 0.83 | 99 |  | 0.85 |  | >60 | 15 | 33 10^−6 cm s^−1 | Cc1nc2ncnn2c2c1CCN2[C@@H](C)c1ccc(F)cc1 [Compound 7, (S)-8-[1-(4-Fluorophenyl)ethyl]-5-methyl-7,8-dihydro-6H-pyrrolo [3,2e][1,2,4]triazolo[1,5-a]pyrimidine]
